{
  "source": "patent US20130289070A1",
  "about": "“Use of Levocabastine for Modulating Generation of Pro-Inflammatory Cytokines” (Bausch & Lomb Incorporated, priority 2007, published 2013)",
  "key": {"[1]": {"tested_on": "EoL-1 (human eosinophilic leukaemia cell line) cells", "assay": "TNF-α-induced cytokine release, EoL-1 cells differentiated with PMA (Luminex)", "assay_type": "cell-based", "settings": "24 h, Bio1211 vs TNF-α", "experimental": "(§1) EoL-1 (human eosinophilic leukaemia cell line) cells (Saito et al., 1985; Mayumi, 1992) were maintained in RPMI-1640 medium with L-glutamine supplemented with 10% (v/v) FBS at 37° C. in a humidified atmosphere with 5% CO2. Where indicated, 24 h before the experiment 25 ng/mL PMA ((phorbol 12-myristate 13-acetate, purchased from Sigma Aldrich) was added to the medium to induce eosinophil granulation and differentiation (Ohtsu et al., 1993; Zimmermann et al., 2000).\n(§2) Half-million cells were aliquoted per point in a 24 well plate; each experiment was performed in triplicate and carried out in parallel with eosinophils differentiated and non differentiated with PMA (25 ng/mL, 24 h). Cells were suspended in low serum medium (RPMI-1640, 0.1% (v/v) FBS). TNF-α was used to induce cytokine secretion as previously described by Steube et al. (2000), and the net release was obtained by comparison to the basal (non-TNF-α treated). In the first experiment we evaluated the concentration and time relation between TNF-α stimulation and cytokine release. Therefore, 5, 10, and 25 ng/mL of TNF-α was administered to the cells at 0, ½, 1, 2, 3, 6, 12 and 24 h (data not shown). An aliquot of 150 μL of supernate was collected for cytokines' analysis. […] Differentiated and non-differentiated EoL-1 cells were exposed from 0.1 to 2.3 mM levocabastine ([…]Levocabastine 0.05% solution eye drops containing cyclodextrins, without benzalkonium chloride), and aliquots of the supernates were collected after 12 and 24 h. The content of cytokines at time zero was estimated by treating the cells with 400 nM calcimycin (A-23187), which is a cytolytic agent that frees all the mediators from the cytoplasmic compartment. In addition, for each experiment we tested the effect of the vehicle, which was added to the wells in a concentration equal to the maximum amount used for drug dilution.\n(§3) Samples (supernates 12 and 24 h) in triplicate were analyzed using Luminex 200™ (Luminex, Austin, Tex.) and Beadview software v1.0 (Upstate Cell Signaling Solutions, Temecula, Calif.).\n(§4) All data are presented as mean±SEM for the indicated number of experiments. Statistical significance was determined by Newman-Keuls test after ANOVA using GraphPad Prism (version 3.0; GraphPad Software Inc., San Diego, Calif., USA). P-values<0.05 were considered to be significant."}, "[2]": {"tested_on": "EoL-1 (human eosinophilic leukaemia cell line) cells", "assay": "TNF-α-induced cytokine release, non-differentiated EoL-1 cells (NO PMA) (Luminex)", "assay_type": "cell-based", "settings": "24 h, Bio1211 vs TNF-α", "experimental": "as §1, §2, §3, §4"}},
  "data": [
    {"substance": "4-((2-methylphenyl)aminocarbonyl)-aminophenyl)acetyl-Leu-Asp-Val-Pro-OH [Bio1211]", "values": [
      {"measurement": "Fractalkine (PMA), p of decrement", "setting": "[1]", "value": "ns"},
      {"measurement": "G-CSF (PMA), p of decrement", "setting": "[1]", "value": "ns"},
      {"measurement": "GM-CSF (PMA), p of decrement", "setting": "[1]", "value": "ns"},
      {"measurement": "IL-1ra (PMA), p of decrement", "setting": "[1]", "value": "ns"},
      {"measurement": "IL-1α (PMA), p of decrement", "setting": "[1]", "value": "P < 0.05"},
      {"measurement": "IL-1β (PMA), p of decrement", "setting": "[1]", "value": "ns"},
      {"measurement": "IL-5 (PMA), p of decrement", "setting": "[1]", "value": "ns"},
      {"measurement": "IL-6 (PMA), p of decrement", "setting": "[1]", "value": "ns"},
      {"measurement": "IL-7 (PMA), p of decrement", "setting": "[1]", "value": "ns"},
      {"measurement": "IL-8 (PMA), p of decrement", "setting": "[1]", "value": "ns"},
      {"measurement": "IL-10 (PMA), p of decrement", "setting": "[1]", "value": "ns"},
      {"measurement": "IL-12p40 (PMA), p of decrement", "setting": "[1]", "value": "P < 0.05"},
      {"measurement": "IP-10 (PMA), p of decrement", "setting": "[1]", "value": "P < 0.001"},
      {"measurement": "MCP-1 (PMA), p of decrement", "setting": "[1]", "value": "P < 0.001"},
      {"measurement": "MIP-1α (PMA), p of decrement", "setting": "[1]", "value": "ns"},
      {"measurement": "MIP-1β (PMA), p of decrement", "setting": "[1]", "value": "ns"},
      {"measurement": "RANTES (PMA), p of decrement", "setting": "[1]", "value": "ns"},
      {"measurement": "TGF-α (PMA), p of decrement", "setting": "[1]", "value": "ns"},
      {"measurement": "VEGF (PMA), p of decrement", "setting": "[1]", "value": "P < 0.05"},
      {"measurement": "Fractalkine (NO PMA), p of decrement", "setting": "[2]", "value": "P < 0.05"},
      {"measurement": "G-CSF (NO PMA), p of decrement", "setting": "[2]", "value": "ns"},
      {"measurement": "GM-CSF (NO PMA), p of decrement", "setting": "[2]", "value": "P < 0.05"},
      {"measurement": "IL-1ra (NO PMA), p of decrement", "setting": "[2]", "value": "P < 0.001"},
      {"measurement": "IL-1α (NO PMA), p of decrement", "setting": "[2]", "value": "ns"},
      {"measurement": "IL-1β (NO PMA), p of decrement", "setting": "[2]", "value": "ns"},
      {"measurement": "IL-5 (NO PMA), p of decrement", "setting": "[2]", "value": "ns"},
      {"measurement": "IL-6 (NO PMA), p of decrement", "setting": "[2]", "value": "P < 0.05"},
      {"measurement": "IL-7 (NO PMA), p of decrement", "setting": "[2]", "value": "ns"},
      {"measurement": "IL-8 (NO PMA), p of decrement", "setting": "[2]", "value": "P < 0.001"},
      {"measurement": "IL-10 (NO PMA), p of decrement", "setting": "[2]", "value": "ns"},
      {"measurement": "IL-12p40 (NO PMA), p of decrement", "setting": "[2]", "value": "P < 0.05"},
      {"measurement": "IP-10 (NO PMA), p of decrement", "setting": "[2]", "value": "P < 0.001"},
      {"measurement": "MCP-1 (NO PMA), p of decrement", "setting": "[2]", "value": "ns"},
      {"measurement": "MIP-1α (NO PMA), p of decrement", "setting": "[2]", "value": "ns"},
      {"measurement": "MIP-1β (NO PMA), p of decrement", "setting": "[2]", "value": "ns"},
      {"measurement": "RANTES (NO PMA), p of decrement", "setting": "[2]", "value": "ns"},
      {"measurement": "TGF-α (NO PMA), p of decrement", "setting": "[2]", "value": "ns"},
      {"measurement": "VEGF (NO PMA), p of decrement", "setting": "[2]", "value": "ns"}
    ]}
  ]
}
